According to patent publication US20080287398A1, “COLD MENTHOL RECEPTOR-1 ANTAGONISTS” (priority 2007, published 2008):
Several values for one entry are separate records, joined by “and”; a condition that tells them apart may be missing. Equal entries are not always repeated. Where two headings read alike, the source gives them in different places.

Biological target: T1, canine TRPM8 (Canis lupus familiaris, UniProt Q1A7N1)
T1 construct: expressed in transfected cells
Experiment: In vitro canine TRPM8 functional assay (Ca2+-sensitive dye, FLIPR/FDSS, icilin activation)
Assay type: cell-based
Conditions: HEK293 cells expressing canine TRPM8, icilin activation; for % I (1 μM): 1 μM compound; for IC50: eight-point dose-response; for % I (0.5 μM): 0.5 μM compound
Outline: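 HEK293 cells stably expressing canine TRPM8, loaded with Calcium 3 dye, preincubated with compound for 5 min before icilin at a concentration giving ~80% maximal response. Ca2+ fluorescence by FLIPR or FDSS; basal-subtracted, normalized to % maximal response, quadruplicate wells, sigmoidal fit for EC50/IC50.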

[1] = HEK293, 0.5 μM compound, read-out: % I (0.5 μM)
[2] = HEK293, read-out: % I (0.5 μM), 0.5 μM compound

T1 sequence (Q1A7N1 1-1104): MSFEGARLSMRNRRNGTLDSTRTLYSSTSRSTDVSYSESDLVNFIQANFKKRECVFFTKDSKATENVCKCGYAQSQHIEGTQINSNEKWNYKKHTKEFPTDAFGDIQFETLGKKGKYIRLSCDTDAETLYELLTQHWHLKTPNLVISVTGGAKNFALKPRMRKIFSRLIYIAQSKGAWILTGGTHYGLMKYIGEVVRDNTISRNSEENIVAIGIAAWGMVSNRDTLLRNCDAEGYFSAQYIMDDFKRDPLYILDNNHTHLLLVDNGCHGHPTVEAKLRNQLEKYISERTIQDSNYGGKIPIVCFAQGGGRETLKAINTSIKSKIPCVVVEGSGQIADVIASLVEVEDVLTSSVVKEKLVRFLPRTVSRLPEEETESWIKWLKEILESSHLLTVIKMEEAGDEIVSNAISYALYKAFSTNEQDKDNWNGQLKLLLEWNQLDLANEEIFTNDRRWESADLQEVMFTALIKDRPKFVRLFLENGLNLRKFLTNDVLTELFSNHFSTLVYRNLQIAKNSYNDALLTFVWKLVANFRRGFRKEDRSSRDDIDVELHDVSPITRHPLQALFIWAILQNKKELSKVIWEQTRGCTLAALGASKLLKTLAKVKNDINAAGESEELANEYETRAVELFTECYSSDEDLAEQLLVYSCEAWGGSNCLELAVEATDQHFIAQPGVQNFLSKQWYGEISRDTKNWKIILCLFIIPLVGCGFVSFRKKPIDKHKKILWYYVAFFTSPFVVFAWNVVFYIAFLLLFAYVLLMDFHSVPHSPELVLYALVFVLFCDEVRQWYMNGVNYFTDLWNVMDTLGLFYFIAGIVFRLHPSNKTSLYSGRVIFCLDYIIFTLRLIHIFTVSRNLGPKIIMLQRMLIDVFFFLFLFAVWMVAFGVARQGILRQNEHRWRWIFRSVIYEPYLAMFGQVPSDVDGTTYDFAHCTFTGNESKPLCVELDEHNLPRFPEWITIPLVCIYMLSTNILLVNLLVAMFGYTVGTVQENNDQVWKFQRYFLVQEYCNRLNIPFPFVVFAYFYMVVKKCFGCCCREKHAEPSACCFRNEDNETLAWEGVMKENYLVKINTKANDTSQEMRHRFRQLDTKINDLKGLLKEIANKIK

Row | Structure (SMILES) | IC50 (read-out: IC50) | % I (0.5 μM) | also measured
1 | CC(C)OP(=O)(OC(C)C)C(Cc1cc(C(F)(F)F)cc(Cl)c1F)c1sc2ccccc2c1Br (stereo not drawn) [Cpd 195] | 0.061 µM |  | % I (1 μM): 103%
2 | CC(C)OP(=O)(OC(C)C)C(Cc1ccccc1F)c1sc2ccccc2c1Br (stereo not drawn) [Cpd 196] | 0.048 µM |  | % I (1 μM): 100%
3 | CC(C)OP(=O)(OC(C)C)C(Cc1ccccc1F)c1sc2cccc(Br)c2c1Br (stereo not drawn) [Cpd 198] | 0.357 µM |  | % I (1 μM): 98%
4 | CC(C)OP(=O)(OC(C)C)C(Cc1ccccc1F)c1sc2cc(Br)ccc2c1Br (stereo not drawn) [Cpd 199] |  |  | % I (1 μM): 81%
5 | CC(C)OP(=O)(OC(C)C)C(Cc1ccc(F)cc1)c1sc2cc(Br)ccc2c1Br (stereo not drawn) [Cpd 200] |  |  | % I (1 μM): 81%
6 | COP(=O)(OC)C(Cc1ccc(F)c(F)c1)c1sc2ccccc2c1Br (stereo not drawn) [Cpd 201] | 0.133 µM |  | % I (1 μM): 100%
7 | Cc1c(C(Cc2ccc(F)c(F)c2)P(=O)(OC(C)C)OC(C)C)oc2cccc(F)c12 (stereo not drawn) [Cpd 202] | 0.053 µM |  | % I (1 μM): 103%
8 | CCC(C)P(=O)(C(C)CC)C(Cc1ccc(F)c(F)c1)c1sc2ccccc2c1Br (stereo not drawn) [Cpd 203] | 0.457 µM |  | % I (1 μM): 96%
9 | CCCCOP(=O)(OCCCC)C(Cc1ccc(F)c(F)c1)c1sc2ccccc2c1Br (stereo not drawn) [Cpd 209, [1-(3-Bromo-benzo[b]thiophen-2-yl)-2-(3,4-difluoro-phenyl)-ethyl]-phosphonic acid dibutyl ester] | 0.071 µM |  | inhibition at 0.5 µM [1]: 104%
10 | COC(=O)COP(=O)(OCC(=O)OC)C(Cc1ccc(F)c(F)c1)c1sc2ccccc2c1Br (stereo not drawn) [Cpd 212, {[1-(3-Bromo-benzo[b]thiophen-2-yl)-2-(3,4-difluoro-phenyl)-ethyl]-methoxycarbonylmethoxy-phosphinoyloxy}-acetic acid methyl ester] | 0.119 µM |  | inhibition at 0.5 µM [1]: 102%
11 | CCOP(=O)(OCC)C(Cc1ccc(F)c(F)c1)c1sc2ccccc2c1-c1ccccc1 (stereo not drawn) [Cpd 214, [2-(3,4-Difluoro-phenyl)-1-(3-phenyl-benzo[b]thiophen-2-yl)-ethyl]-phosphonic acid diethyl ester] |  |  | inhibition at 0.5 µM [2]: 101%; IC50 (IC50 (μM)): 0.08 µM
12 | CCOP(=O)(OCC)C(Cc1ccc(F)c(F)c1)c1sc2ccccc2c1-c1cccc(F)c1 (stereo not drawn) [Cpd 217, {2-(3,4-Difluoro-phenyl)-1-[3-(3-fluoro-phenyl)-benzo[b]thiophen-2-yl)-ethyl]-phosphonic acid diethyl ester] |  |  | inhibition at 0.5 µM [2]: 100%; IC50 (IC50 (μM)): 0.142 µM
13 | CC(C)OP(=O)(OC(C)C)C(Cc1ccc(F)c(F)c1)c1sc2cccc(F)c2c1Br (stereo not drawn) [Cpd 221, [1-(3-Bromo-4-fluoro-benzo[b]thiophen-2-yl)-2-(3,4-difluoro-phenyl)-ethyl]-phosphonic acid diisopropyl ester] | 0.032 µM |  | inhibition at 0.5 µM [1]: 102%
14 | CCOP(=O)(OCC)C(Cc1ccc(F)c(O)c1)c1sc2ccccc2c1Br (stereo not drawn) [Cpd 225, [1-(3-Bromo-benzo[b]thiophen-2-yl)-2-(4-fluoro-3-hydroxy-phenyl)-ethyl]-phosphonic acid diethyl ester] |  |  | inhibition at 0.5 µM [2]: 103%; IC50 (IC50 (μM)): 0.027 µM
15 | CC(C)OP(=O)(OC(C)C)[C@H](Cc1ccc(F)c(C(F)(F)F)c1)c1sc2ccccc2c1Br [Cpd 243, (R)-[1-(3-Bromo-benzo[b]thiophen-2-yl)-2-(4-fluoro-3-trifluoromethyl-phenyl)-ethyl]-phosphonic acid diisopropyl ester] | 0.089 µM |  | inhibition at 0.5 µM [1]: 80%
16 | CC(C)OP(=O)(OC(C)C)C(Cc1ccc(F)cc1C(F)(F)F)c1sc2ccccc2c1Br (stereo not drawn) [Cpd 249] | 0.054 µM | 103% | 
17 | CC(C)OP(=O)(OC(C)C)C(Cc1cccc(SC(F)(F)F)c1)c1sc2ccccc2c1Br (stereo not drawn) [Cpd 250] | 0.048 µM | 103% | 
18 | CSc1ccc(CC(c2sc3ccccc3c2Br)P(=O)(OC(C)C)OC(C)C)cc1 (stereo not drawn) [Cpd 251] | 0.045 µM | 103% | 
19 | CC(C)OP(=O)(OC(C)C)C(Cc1ccc(S(C)(=O)=O)cc1)c1sc2ccccc2c1Br (stereo not drawn) [Cpd 252] |  | 44% | 

Row | Structure (SMILES) | IC50 (read-out: IC50) | % I (0.5 μM) | also measured
20 | CC(C)OP(=O)(OC(C)C)C(Cc1ccc(F)c(Cl)c1)c1sc2ccccc2c1Cl (stereo not drawn) [Cpd 253] | 0.034 µM | 103% | 
21 | CC(C)OP(=O)(OC(C)C)C(Cc1ccc(F)cc1C(F)(F)F)c1sc2ccccc2c1Cl (stereo not drawn) [Cpd 254] | 0.079 µM | 103% | 
22 | CC(C)OP(=O)(OC(C)C)C(Cc1cccc(SC(F)(F)F)c1)c1sc2ccccc2c1Cl (stereo not drawn) [Cpd 255] | 0.058 µM | 103% | 
23 | CSc1ccc(CC(c2sc3ccccc3c2Cl)P(=O)(OC(C)C)OC(C)C)cc1 (stereo not drawn) [Cpd 256] | 0.056 µM | 103% | 
24 | CCOP(=O)(OCC)C(Cc1ccc(Cl)cc1)c1sc2ccccc2c1Br (stereo not drawn) [Cpd 257] | 0.026 µM | 101% | 
25 | CCOP(=O)(OCC)C(Cc1ccc(Cl)c(F)c1)c1sc2ccccc2c1Br (stereo not drawn) [Cpd 258] | 0.045 µM | 102% | 
26 | CCOP(=O)(OCC)C(Cc1cc(F)cc(Cl)c1)c1sc2ccccc2c1Br (stereo not drawn) [Cpd 259] | 0.023 µM | 103% | 
27 | CCOP(=O)(OCC)C(Cc1ccccc1C(F)(F)F)c1sc2ccccc2c1Br (stereo not drawn) [Cpd 260] | 0.077 µM and 0.056 µM | 103% | 
28 | CCOP(=O)(OCC)C(Cc1cc(C(F)(F)F)cc(C(F)(F)F)c1)c1sc2ccccc2c1Br (stereo not drawn) [Cpd 261] | 0.073 µM and 0.077 µM | 102% | 
29 | CCOP(=O)(OCC)C(Cc1ccc(S(=O)(=O)C(F)(F)F)cc1)c1sc2ccccc2c1Br (stereo not drawn) [Cpd 262] | 0.066 µM | 103% | 
30 | CC(C)OP(=O)(OC(C)C)C(Cc1ccc(S(=O)(=O)C(F)(F)F)cc1)c1sc2ccccc2c1Br (stereo not drawn) [Cpd 263] | 0.022 µM | 103% | 
31 | CC(C)OP(=O)(OC(C)C)C(Cc1ccc(S(=O)(=O)C(F)(F)F)cc1)c1sc2ccccc2c1Cl (stereo not drawn) [Cpd 264] | 0.029 µM | 103% | 
32 | CCOP(=O)(OCC)C(Cc1ccc(F)c(F)c1)c1cc2ccccc2o1 (stereo not drawn) [Cpd 265] | 0.409 µM |  | % I (1 μM): 95%
33 | CCOP(=O)(OCC)C(Cc1ccc(F)c(F)c1)c1oc2ccccc2c1Br (stereo not drawn) [Cpd 266] | 0.051 µM |  | % I (1 μM): 103%
34 | CC(C)OP(=O)(OC(C)C)C(Cc1cccc(Cl)c1F)c1sc2ccccc2c1Br (stereo not drawn) [Cpd 267] | 0.047 µM and 0.029 µM |  | % I (1 μM): 101% and 102%
35 | CC(C)OP(=O)(OC(C)C)C(Cc1cccc(C(F)(F)F)c1Cl)c1sc2ccccc2c1Br (stereo not drawn) [Cpd 268] | 0.034 µM | 104% | 
36 | CCOP(=O)(OCC)C(Cc1ccccc1Cl)c1sc2ccccc2c1Cl (stereo not drawn) [Cpd 269] | 0.162 µM | 102% | 
37 | CCOP(=O)(OCC)C(Cc1cccc(OC(F)(F)F)c1)c1sc2ccccc2c1Cl (stereo not drawn) [Cpd 270] | 0.202 µM | 102% | 
38 | CCOP(=O)(OCC)C(Cc1ccc(OC(F)(F)F)c(Cl)c1)c1sc2ccccc2c1Cl (stereo not drawn) [Cpd 271] | 0.104 µM | 103% | 

Row | Structure (SMILES) | IC50 (read-out: IC50) | % I (0.5 μM) | also measured
39 | CCOP(=O)(OCC)C(Cc1cccc(Cl)c1F)c1sc2ccccc2c1Cl (stereo not drawn) [Cpd 272] | 0.114 µM | 103% | 
40 | CCOP(=O)(OCC)C(Cc1ccc(C(F)(F)F)c(F)c1)c1sc2ccccc2c1Cl (stereo not drawn) [Cpd 273] | 0.116 µM | 103% | 
41 | CCOP(=O)(OCC)C(Cc1cc(C(F)(F)F)ccc1Cl)c1sc2ccccc2c1Cl (stereo not drawn) [Cpd 274] | 0.301 µM | 95% | 
42 | CCOP(=O)(OCC)C(Cc1cccc(Br)c1)c1sc2ccccc2c1Cl (stereo not drawn) [Cpd 275] | 0.104 µM | 103% | 
43 | CCOP(=O)(OCC)C(Cc1cc(F)cc(Cl)c1)c1sc2ccccc2c1Cl (stereo not drawn) [Cpd 276] | 0.114 µM | 103% | 
44 | CCOP(=O)(OCC)C(Cc1ccc(OC(F)(F)F)cc1)c1sc2ccccc2c1Cl (stereo not drawn) [Cpd 277] | 0.116 µM | 103% | 
45 | CCOP(=O)(OCC)C(Cc1cc(F)cc(C(F)(F)F)c1)c1sc2ccccc2c1Cl (stereo not drawn) [Cpd 278] | 0.159 µM | 103% | 
46 | CCOP(=O)(OCC)C(Cc1cccc(C#N)c1)c1sc2ccccc2c1Br (stereo not drawn) [Cpd 309] | 0.088 µM | 103% | 
47 | CCOP(=O)(OCC)C(Cc1cccc(-n2cccc2)c1)c1sc2ccccc2c1Br (stereo not drawn) [Cpd 310] | 0.042 µM | 102% | 
48 | CCOP(=O)(OCC)C(Cc1ccc(OC(F)F)cc1)c1sc2ccccc2c1Br (stereo not drawn) [Cpd 311] | 0.053 µM | 102% | 
49 | CCOP(=O)(OCC)C(Cc1ccc(C#N)cc1)c1sc2ccccc2c1Br (stereo not drawn) [Cpd 312] | 0.089 µM | 102% | 
50 | CCOP(=O)(OCC)C(Cc1cccc(C(=O)OC)c1)c1sc2ccccc2c1Br (stereo not drawn) [Cpd 313] | 0.083 µM | 102% | 
51 | CCOP(=O)(OCC)C(Cc1cccc(OC)c1)c1sc2ccccc2c1Br (stereo not drawn) [Cpd 314] | 0.029 µM and 0.021 µM | 103% and 104% | 
52 | CCOP(=O)(OCC)C(Cc1cccc([N+](=O)[O-])c1)c1sc2ccccc2c1Br (stereo not drawn) [Cpd 315] |  |  | inhibition at 0.5 µM [2]: 103%; IC50 (IC50 (μM)): 0.041 µM
53 | CCOP(=O)(OCC)C(Cc1cccc(O)c1)c1sc2ccccc2c1Br (stereo not drawn) [Cpd 316] | 0.032 µM and 0.02 µM | 103% and 104% | 
54 | COc1cccc(CC(c2sc3ccccc3c2Br)P(=O)(OC(C)C)OC(C)C)c1 (stereo not drawn) [Cpd 317] | 0.021 µM | 102% | 
55 | CCOP(=O)(OCC)C(Cc1cccc(N)c1)c1sc2ccccc2c1Br (stereo not drawn) [Cpd 318, [2-(3-Amino-phenyl)-1-(3-bromo-benzo[b]thiophen-2-yl)-ethyl]-phosphonic acid diethyl ester] |  |  | inhibition at 0.5 µM [2]: 100%; IC50 (IC50 (μM)): 0.211 µM
56 | CCOP(=O)(OCC)C(Cc1cc(OC)cc(OC)c1)c1sc2ccccc2c1Br (stereo not drawn) [Cpd 319] | 0.026 µM | 103% | 
57 | CCOP(=O)(OCC)C(Cc1ccccc1OC)c1sc2ccccc2c1Br (stereo not drawn) [Cpd 320] | 0.028 µM | 103% | 
